Laboratory results reported in PMC8041284, “Tunable Methacrylamides for Covalent Ligand Directed Release Chemistry” (Journal of the American Chemical Society, 2021).

Biological target: BTK (Homo sapiens, UniProt Q06187)
Assay: biochemical
Conditions: read-out: BTK inhibition (%), 0.75 uM BTK, […] probe 3l, 15 min preincubation

BTK, sequence (Q06187 402-655 limits assumed): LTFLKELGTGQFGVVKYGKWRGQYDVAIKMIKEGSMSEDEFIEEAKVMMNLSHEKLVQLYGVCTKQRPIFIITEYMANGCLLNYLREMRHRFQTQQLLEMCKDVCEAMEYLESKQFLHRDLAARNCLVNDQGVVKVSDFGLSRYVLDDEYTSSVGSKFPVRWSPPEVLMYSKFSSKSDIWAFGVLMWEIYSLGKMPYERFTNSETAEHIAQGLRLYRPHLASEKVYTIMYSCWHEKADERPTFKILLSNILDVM

inhibition at 10 µM | Compound
88.3% | C=CC(=O)Nc1ccc(CN2C(=O)N(c3cc(OC)cc(OC)c3)Cc3cnc(Nc4ccc(N5CCN(C)CC5)cc4)nc32)cc1 [PCM-0215559]
-10.3% | OC1CCC(Nc2ncc3nc(Nc4c(F)cc(F)cc4F)n([C@H]4CCOC4)c3n2)CC1 (some centres unmarked) [PCM-0214575]
-0.8% | C[C@H](CCC(=O)NCCS(=O)(=O)O)[C@H]1CC[C@H]2[C@@H]3[C@H](O)C[C@@H]4C[C@H](O)CC[C@]4(C)[C@H]3CC[C@]12C [PCM-0215035]
-27.6% | c1cncc(CN2CCC(n3ncc4c(N5CCOCC5)nc(-c5ccc6[nH]ccc6c5)nc43)CC2)c1 [PCM-0095384]
17.2% | C[C@@H]1COC(Nc2ccc3ncnc(Nc4ccc(OCc5nccs5)c(Cl)c4)c3c2)=N1 [PCM-0095513]
67.2% | Cc1cccc(CN2CCN(C(c3ccccc3)c3ccc(Cl)cc3)CC2)c1 (centres unmarked) [PCM-0086087]
-15.3% | N[C@@H]1CCCCN(c2c(F)cc3c(=O)c(C(=O)O)cn(C4CC4)c3c2Cl)C1 [PCM-0095545]
10.1% | CO[C@H]1/C=C/O[C@@]2(C)Oc3c(C)c(O)c4c(O)c(c5c(nc6cc(C)ccn65)c4c3C2=O)NC(=O)/C(C)=C\C=C\[C@H](C)[C@H](O)[C@@H](C)[C@@H](O)[C@@H](C)[C@H](OC(C)=O)[C@@H]1C [PCM-0086183]
-15.9% | CCOC(=O)NC/C=C/c1ccc2ncnc(Nc3ccc(Oc4ccc(C)nc4)c(C)c3)c2c1 [PCM-0095019]
-16.3% | COc1cc(C(C)=O)ccc1OCCCN1CCC(c2noc3cc(F)ccc23)CC1 [PCM-0095163]
-3.9% | CC1(C)O[C@H]2CC(=O)OC[C@]23[C@H]2CC[C@@]4(C)[C@H](c5ccoc5)OC(=O)[C@H]5O[C@]54[C@]2(C)C(=O)C[C@@H]13 [PCM-0214679]
-14% | C[C@@H](c1nc(-c2ccc(C#N)cc2)cs1)[C@](O)(Cn1cncn1)c1cc(F)ccc1F [PCM-0214918]
-4.1% | CCn1c(-c2nonc2N)nc2c(C#CC(C)(C)O)ncc(OC[C@H]3CCCNC3)c21 [PCM-0094908]
2.1% | CCCCNc1ncc(C(=O)NCc2ccc(-n3ccnc3)cc2)c(NC2CCC(O)CC2)n1 (centres unmarked) [PCM-0215319]
-0.7% | COc1cc2nc(N3CCCN(C)CC3)nc(NC3CCN(Cc4ccccc4)CC3)c2cc1OC [PCM-0064746]
44.8% | CCc1cc(Nc2nccc(-c3c(-c4ccc(OC)c(C(=O)Nc5c(F)cccc5F)c4)nc4ccccn34)n2)c(OC)cc1N1CCC(N2CCN(S(C)(=O)=O)CC2)CC1 [PCM-0095069]
-10.9% | CCCCc1nc(Cl)c(CO)n1Cc1ccc(-c2ccccc2-c2nnn[nH]2)cc1 [PCM-0086291]
-6.2% | Cc1cnc(NC(=O)C2=C(O)c3ccccc3S(=O)(=O)N2C)s1 [PCM-0086060]
95.9% | C=CC(=O)Nc1cccc(Nc2nc(Nc3ccc(N4CCN(C(C)=O)CC4)cc3OC)ncc2C(F)(F)F)c1 [PCM-0215245]
3.9% | Cc1ccccc1N1CCN(CCc2nnc3n2CCCC3)CC1 [PCM-0216139]
-14.5% | CCOC(=O)C1=C[C@]2(CC)CCCN3CCc4c(n1c1ccccc41)[C@@H]32 [PCM-0064941]
-16.2% | CCCc1ccc(OCC(=O)N(Cc2nc(-c3cccnc3)no2)C(C)C)cc1 [PCM-0215326]
20.8% | COc1ccc(Oc2cc(C)c(-c3csc(NC(=O)c4ccncc4)n3)c(C)c2)cc1 [PCM-0215413]
73.8% | Cc1cc(C(=O)Nc2nc3cccc(Cl)c3n2[C@@H]2CCCCN(C(=O)/C=C/CN(C)C)C2)ccn1 [PCM-0215804]
-18.6% | COc1ncc(-c2ccc3nccc(-c4ccnnc4)c3c2)cc1NS(=O)(=O)c1ccc(F)cc1F [PCM-0095528]
80.7% | C=CC(=O)Nc1cc(Nc2nccc(-c3cn(C)c4ccccc34)n2)c(OC)cc1N(C)CCN(C)C [PCM-0215305]

Further lines, the molecule ahead of its results:

Compound | inhibition at 10 µM
COCC1(CO)C(=O)C2CCN1CC2 (centres unmarked) [PCM-0215751] | 0%
CC(C)=CCC/C(C)=C/Cc1c(O)c(CC=C(C)C)c2c(c1O)C(=O)C1=C[C@@H]3C[C@H]4C(C)(C)O[C@@](C/C=C(/C)C(=O)O)(C3=O)[C@@]14O2 [PCM-0216347] | 100%
NC(=O)CC[C@H](N)C(=O)O [PCM-0065292] | 17.9%
CCCCCCCCCCCCCCCCCC[N+](C)(C)C [PCM-0216157] | -27%
CC(C)(C)C(O)/C(=C\c1ccc(Cl)cc1)n1cncn1 (centres unmarked) [PCM-0214890] | -16.3%
Cc1cccc(Nc2nc(-c3ccncc3)cs2)c1 [PCM-0094960] | -1.6%
CN1CCC(=C2c3ccccc3CC(=O)c3sccc32)CC1 [PCM-0065580] | 10.3%
CC1(C)S[C@@H]2[C@H](NC(=O)[C@H](N)c3ccccc3)C(=O)N2[C@H]1C(=O)OCOC(=O)[C@@H]1N2C(=O)C[C@H]2S(=O)(=O)C1(C)C [PCM-0216243] | -11.6%
CN(C)[C@@H]1C(=O)C(C(N)=O)=C(O)[C@@]2(O)C(=O)C3=C(O)c4c(O)ccc(Cl)c4[C@@](C)(O)[C@H]3C[C@@H]12 [PCM-0215204] | 10.2%
COc1ccccc1 [PCM-0216198] | -14.7%
OCCc1ccc(O)c(O)c1 [PCM-0214956] | -2.3%
Cc1ccc(NCCCc2ccccc2)c(N)c1 [PCM-0095790] | 17%
NCCc1ccccc1 [PCM-0091318] | 0%
Cc1[nH]c2ccccc2c1CCNC(=O)c1cccs1 [PCM-0095767] | -6.9%
CCCC[N+]1(C)[C@@H]2CC(OC(=O)[C@H](CO)c3ccccc3)C[C@H]1[C@@H]1O[C@@H]12 (some centres unmarked) [PCM-0086491] | -17.9%
CC(C)(Oc1ccc(Cl)cc1)C(=O)OCCOC(=O)c1cccnc1 [PCM-0214787] | -6.2%
O=C(/C=C/c1cccc(S(=O)(=O)Nc2ccccc2)c1)NO [PCM-0095051] | 9%
CC[C@@H]1CN2CC[C@@]3(C(=O)Nc4ccccc43)[C@@H]2C[C@@H]1/C(=C\OC)C(=O)OC [PCM-0216594] | -15.4%
C[C@@H]1CC[C@H]2[C@@H](C)C(=O)O[C@@H]3O[C@@]4(C)CC[C@@H]1[C@]32OO4 [PCM-0214642] | 8.6%
CC(C)N(CCNC(=O)CN1CCCC1=O)C(C)C [PCM-0095202] | 1.6%
CC(=O)Nc1nc(-c2cccc(NS(=O)(=O)c3cccc4c(N(C)C)cccc34)c2)cs1 [PCM-0215679] | 97.3%
CCCc1ncc(C[n+]2ccccc2C)c(N)n1 [PCM-0085765] | -8.5%
Cn1c(O)c(C2=c3ccccc3=NC2=O)c2ccccc21 [PCM-0216129] | -17%
CC(=O)c1ccccc1 [PCM-0216190] | 3.1%
NS(=O)(=O)c1cc(C(=O)O)c(NCc2ccco2)cc1Cl [PCM-0085991] | -2.3%
CC(C)(C(=O)O)c1ccc(C(O)CCCN2CCC(C(O)(c3ccccc3)c3ccccc3)CC2)cc1 (centres unmarked) [PCM-0065056] | -10.3%
CC[C@H](c1ccc(O)cc1)[C@@H](CC)c1ccc(O)cc1 [PCM-0095223] | -11.7%
O=C(O)COc1ccc(Br)cc1/C=C1\SC(=S)N(Cc2cccnc2)C1=O [PCM-0216029] | 7.7%
O=P(O)(O)C(Cl)(Cl)P(=O)(O)O [PCM-0065307] | -23.8%
N/C(=N\N=C\c1ccc(Cl)cc1)N/N=C/c1ccc(Cl)cc1 [PCM-0215125] | 77.8%
